Where a name gives a salt, the structure may show the parent alone.

Test in one data set: not given
Conditions: human, microsomes.
As for `CCCCCCCC(=O)N[C@H](CN1CCCC1)[C@H](OC(=O)c1ccccc1)c1ccc2c(c1)OCCO2` [I-a Hemitartrate salt, (1R,2R)-1-(2,3-dihydrobenzo[b][1,4]dioxin-6-yl)-2-octanamido-3-(pyrrolidin-1-yl)propyl benzoate], the “HLM stability (half-life, minutes)” value was less than 30 min.
The same measure, in the same setting: for `CCCCCCCC(=O)N[C@H](CN1CCCC1)[C@H](OC(C)=O)c1ccc2c(c1)OCCO2` [I-e Hemitartrate salt, (1R,2R)-1-(2,3-dihydrobenzo[b][1,4]dioxin-6-yl)-2-octanamido-3-(pyrrolidin-1-yl)propyl acetate] the value was less than 30 min; for `CCCCCCCC(=O)N[C@H](CN1CCCC1)[C@H](OC(=O)CC)c1ccc2c(c1)OCCO2` [I-f Hemitartrate salt, (1R,2R)-1-(2,3-dihydrobenzo[b][1,4]dioxin-6-yl)-2-octanamido-3-(pyrrolidin-1-yl)propyl propionate], less than 30 min.

A further data set can be described thus: Metabolic stability of prodrugs in human liver microsomes. Conditions: pH 7.4. On the technique in general: Liver microsomes are a subcellular fraction often used to study metabolism.
On to `CCCCCCCC(=O)N[C@H](CN1CCCC1)[C@H](O)c1ccc2c(c1)OCCO2` [Eliglustat, N-((1R, 2R)-1-(2,3-dihydrobenzo[b] [1,4]dioxin-6-yl)-1-hydroxy-3-(pyrrolidin-1-yl)propan-2-yl) octanamide], for which the half-life was determined as 30 min.
Same read-out and setting: for `CCCCCCCC(=O)N[C@H](CN1CCCC1)[C@H](OC(=O)CCCCC)c1ccc2c(c1)OCCO2` [I-aa, (1R,2R)-1-(2,3-dihydrobenzo[b][1,4]dioxin-6-yl)-2-octanamido-3-(pyrrolidin-1-yl)propyl hexanoate] the value was less than 30 min; for `CCCCCCCC(=O)N[C@H](CN1CCCC1)[C@H](OC(=O)c1cccnc1)c1ccc2c(c1)OCCO2` [I-c Hemitartrate salt, (1R,2R)-1-(2,3-dihydrobenzo[b][1,4]dioxin-6-yl)-2-octanamido-3-(pyrrolidin-1-yl)propyl nicotinate], less than 30 min; for `CCCCCCCC(=O)N[C@H](CN1CCCC1)[C@H](OC(=O)c1ccccc1O)c1ccc2c(c1)OCCO2` [I-d Hemitartrate salt, (1R,2R)-1-(2,3-dihydrobenzo[b][1,4]dioxin-6-yl)-2-octanamido-3-(pyrrolidin-1-yl)propyl 2-hydroxybenzoate], less than 30 min.
In the case of `CCCCCCCC(=O)N[C@H](CN1CCCC1)[C@H](OC(=O)C(C)C)c1ccc2c(c1)OCCO2` [I-g Hemitartrate salt, (1R,2R)-1-(2,3-dihydrobenzo[b][1,4]dioxin-6-yl)-2-octanamido-3-(pyrrolidin-1-yl)propyl isobutyrate], the half-life is less than 30 min.
The same measure, in the same setting: the same measure for `CCCCCCCC(=O)N[C@H](CN1CCCC1)[C@H](OC(=O)C(C)(C)C)c1ccc2c(c1)OCCO2` [I-h Hemitartrate salt, (1R,2R)-1-(2,3-dihydrobenzo[b][1,4]dioxin-6-yl)-2-octanamido-3-(pyrrolidin-1-yl)propyl pivalate]: less than 30 min; for `CCCCCCCC(=O)N[C@H](CN1CCCC1)[C@H](OC(=O)CCCCCCC)c1ccc2c(c1)OCCO2` [I-i Hemitartrate salt, (1R,2R)-1-(2,3-dihydrobenzo[b][1,4]dioxin-6-yl)-2-octanamido-3-(pyrrolidin-1-yl)propyl octanoate]: less than 30 min.
Still for that read-out and setting: for `CCCCCCCCCC(=O)O[C@H](c1ccc2c(c1)OCCO2)[C@@H](CN1CCCC1)NC(=O)CCCCCCC` [I-j Hemitartrate salt, (1R,2R)-1-(2,3-dihydrobenzo[b][1,4]dioxin-6-yl)-2-octanamido-3-(pyrrolidin-1-yl)propyl decanoate] the value was 63 min; for `CCCCCCCCCCCC(=O)O[C@H](c1ccc2c(c1)OCCO2)[C@@H](CN1CCCC1)NC(=O)CCCCCCC` [I-k Hemitartrate salt, (1R,2R)-1-(2,3-dihydrobenzo[b][1,4]dioxin-6-yl)-2-octanamido-3-(pyrrolidin-1-yl)propyl dodecanoate], 70 min; for `CCCCCCCC(=O)N[C@H](CN1CCCC1)[C@H](OC(=O)[C@H](N)C(C)C)c1ccc2c(c1)OCCO2` [I-l Hydrochloride salt], less than 30 min.
In the case of `CCCCCCCC(=O)N[C@H](CN1CCCC1)[C@H](OC(=O)[C@@H](N)C(C)C)c1ccc2c(c1)OCCO2` [I-m Hemitartrate salt], the half-life was less than 30 min.
Same read-out and setting: for `CCCCCCCC(=O)N[C@H](CN1CCCC1)[C@H](OC(=O)N(CC)CC)c1ccc2c(c1)OCCO2` [I-n Hemitartrate salt, (1R,2R)-1-(2,3-dihydrobenzo[b][1,4]dioxin-6-yl)-2-octanamido-3-(pyrrolidin-1-yl)propyl diethylcarbamate] the value was less than 30 min; for `CCCCCCCC(=O)N[C@H](CN1CCCC1)[C@H](OC(=O)CCC(=O)O)c1ccc2c(c1)OCCO2` [I-o, 4-((1R,2R)-1-(2,3-dihydrobenzo[b][1,4]dioxin-6-yl)-2-octanamido-3-(pyrrolidin-1-yl)propoxy)-4-oxobutanoic acid], more than 90 min.
For the molecule `CCCCCCCC(=O)N[C@H](CN1CCCC1)[C@H](OC(=O)OCC)c1ccc2c(c1)OCCO2` [I-p Hemitartrate salt, (1R,2R)-1-(2,3-dihydrobenzo[b][1,4]dioxin-6-yl)-2-octanamido-3-(pyrrolidin-1-yl)propyl ethyl carbonate], the half-life was less than 30 min.
Consider `CCCCCCCC(=O)N[C@H](CN1CCCC1)[C@H](OC(=O)N1CCC(N2CCCCC2)CC1)c1ccc2c(c1)OCCO2` [I-q, (1R,2R)-1-(2,3-dihydrobenzo[b][1,4]dioxin-6-yl)-2-octanamido-3-(pyrrolidin-1-yl)propyl [1,4′-bipiperidine]-1′-carboxylate], for which the half-life is less than 30 min.
Turning to `CCCCCCCC(=O)N[C@H](CN1CCCC1)[C@H](OC(=O)N(C)C)c1ccc2c(c1)OCCO2` [I-r, (1R,2R)-1-(2,3-dihydrobenzo[b][1,4]dioxin-6-yl)-2-octanamido-3-(pyrrolidin-1-yl)propyl dimethylcarbamate], the half-life was less than 30 min.
Turning to `CCCCCCCC(=O)N[C@H](CN1CCCC1)[C@H](OC(=O)/C=C/C(=O)O)c1ccc2c(c1)OCCO2` [I-s, (E)-4-((1R,2R)-1-(2,3-dihydrobenzo[b][1,4]dioxin-6-yl)-2-octanamido-3-(pyrrolidin-1-yl)propoxy)-4-oxobut-2-enoic acid], the half-life is 64 min.
For the molecule `CCCCCCCC(=O)N[C@H](CN1CCCC1)[C@H](OC(=O)CCCC(=O)O)c1ccc2c(c1)OCCO2` [I-t, 5-((1R,2R)-1-(2,3-dihydrobenzo[b][1,4]dioxin-6-yl)-2-octanamido-3-(pyrrolidin-1-yl)propoxy)-5-oxopentanoic acid], the half-life amounted to 65 min.
As for `CCCCCCCC(=O)N[C@H](CN1CCCC1)[C@H](OC(=O)NC)c1ccc2c(c1)OCCO2` [I-u Hemitartrate salt, (1R,2R)-1-(2,3-dihydrobenzo[b][1,4]dioxin-6-yl)-2-octanamido-3-(pyrrolidin-1-yl)propyl methylcarbamate], the half-life was less than 30 min.
Consider `CCCCCCCC(=O)N[C@H](CN1CCCC1)[C@H](OC(=O)CN(C)C)c1ccc2c(c1)OCCO2` [I-w, (1R,2R)-1-(2,3-dihydrobenzo[b][1,4]dioxin-6-yl)-2-octanamido-3-(pyrrolidin-1-yl)propyl dimethylglycinate], for which the half-life was less than 30 min.
Same read-out and setting: for `CCCCCCCC(=O)N[C@H](CN1CCCC1)[C@H](OC(=O)CCN1CCOCC1)c1ccc2c(c1)OCCO2` [I-x, (1R,2R)-1-(2,3-dihydrobenzo[b][1,4]dioxin-6-yl)-2-octanamido-3-(pyrrolidin-1-yl)propyl 3-morpholinopropanoate] the value was less than 30 min.
`CCCCCCCC(=O)N[C@H](CN1CCCC1)[C@H](OC(=O)CC(=O)O)c1ccc2c(c1)OCCO2` [I-z, 3-((1R,2R)-1-(2,3-dihydrobenzo[b][1,4]dioxin-6-yl)-2-octanamido-3-(pyrrolidin-1-yl)propoxy)-3-oxopropanoic acid]: the half-life was more than 90 min.
In the case of `CCCCCCCC(=O)N[C@H](CN1CCCC1)[C@H](OC(=O)COCCOCCOC)c1ccc2c(c1)OCCO2` [II-a, (1R,2R)-1-(2,3-dihydrobenzo[b][1,4]dioxin-6-yl)-2-octanamido-3-(pyrrolidin-1-yl)propyl 2-(2-(2-methoxyethoxy)ethoxy)acetate], the half-life was less than 30 min.
Still for that read-out and setting: the same measure for `CCCCCCCC(=O)N[C@H](CN1CCCC1)[C@H](OC(=O)CCOCCOCCN)c1ccc2c(c1)OCCO2` [II-b, (1R,2R)-1-(2,3-dihydrobenzo[b][1,4]dioxin-6-yl)-2-octanamido-3-(pyrrolidin-1-yl)propyl 3-(2-(2-aminoethoxy)ethoxy)propanoate]: more than 90 min; for `CCCCCCCC(=O)N[C@H](CN1CCCC1)[C@H](OS(N)(=O)=O)c1ccc2c(c1)OCCO2` [IV-c, (1R,2R)-1-(2,3-dihydrobenzo[b][1,4]dioxin-6-yl)-2-octanamido-3-(pyrrolidin-1-yl)propyl sulfamate]: less than 30 min.
As to `CCCCCCCC(=O)N[C@H](CN1CCCC1)[C@H](OS(=O)(=O)O)c1ccc2c(c1)OCCO2` [IV-d, (1R,2R)-1-(2,3-dihydrobenzo[b][1,4]dioxin-6-yl)-2-octanamido-3-(pyrrolidin-1-yl)propyl hydrogen sulfate], the half-life is more than 90 min.

A further data set in a line: in vitro. Conditions: human, microsomes, pH 7.4.
Molecule `CCCCCCCC(=O)N[C@H](CN1CCCC1)[C@H](OC(=O)Cc1ccccc1)c1ccc2c(c1)OCCO2` [I-b Hemitartrate salt, (1R,2R)-1-(2,3-dihydrobenzo[b][1,4]dioxin-6-yl)-2-octanamido-3-(pyrrolidin-1-yl)propyl 2-phenylacetate] registered a half-life of less than 30 min.
Still for that read-out and setting: for `CCCCCCCC(=O)N[C@H](CN1CCCC1)[C@H](OC(=O)c1ccccc1N)c1ccc2c(c1)OCCO2` [I-v, (1R,2R)-1-(2,3-dihydrobenzo[b][1,4]dioxin-6-yl)-2-octanamido-3-(pyrrolidin-1-yl)propyl 2-aminobenzoate] the value was less than 30 min.

The half-life is the time needed for the level to fall by half in the phase considered.
